The numbers were not newly measured in patent EP3466413A1, “PHARMACEUTICAL COMPOSITION CONTAINING AGOMELATINE AND PROCESS FOR THE PREPARATION THEREOF” (KRKA, d.d., Novo mesto, priority 2017, dated 2019), which cites them from elsewhere.

≈ marks a conversion by molar mass, not a printed value. Read-outs that look alike come from different tables or passages of the source.

For series [1] the following is noted: second (proton) dissociation step, aqueous solution.
For series [2] the following is noted: crystalline powder.

For `O=C(O)C(=O)O` [oxalic acid], the pKa2 in series [1] is given as 4.19.
As to `COc1ccc2cccc(CCNC(C)=O)c2c1` [Agomelatine, N[2-(7-methoxy-1-naphthyl)ethyl] acetamide], the “solubility in aqueous buffers” value (aqueous buffers) is “very slightly soluble”. For the same compound, the “solubility in aqueous solution” value (aqueous solution over the physiological pH range) is reported as “very slightly soluble”. The solubility (dichloromethane) was about 80 mg/mL (≈ 329 mM) and the solubility entry (methanol) is on record as “approximately 500 mg/ml”. For the setting “organic solvents such as methanol and dichloromethane”, the “solubility in organic solvents” value was “freely soluble”. Also, the solubility in water result (water) is on record as “practically insoluble”. Further, the hygroscopicity entry in series [2] is “non-hygroscopic”.
